“Also recorded” adds a separate entry of the source.
Key:
[1] = system: influenza A(H1N1)pdm09 virus isolates with NA-I223V + S247N; format: biochemical
[2] = system: influenza A(H1N1)pdm09 virus isolates with NA-I223V; format: cell-based
[3] = system: influenza A(H1N1)pdm09 virus isolates with NA-S247N; format: cell-based
[4] = system: influenza A(H1N1)pdm09 virus isolates with NA-I223V + S247N; format: cell-based
[5] = system: influenza A(H1N1)pdm09 virus isolates with NA-I223V; format: biochemical
[6] = system: influenza A(H1N1)pdm09 virus isolates with NA-S247N; format: biochemical
[7] = read-out: NA inhibitors IC50, average ± SD

CCOC(=O)C1=C[C@@H](OC(CC)CC)[C@H](NC(C)=O)[C@@H](N)C1 [Oseltamivir, oseltamivir]
susceptibility to antiviral drugs [1]: reduced susceptibility

O=C1c2c(O)c(=O)ccn2N([C@@H]2c3ccccc3SCc3c2ccc(F)c3F)[C@@H]2COCCN12 [baloxavir]
susceptibility to baloxavir [2]: susceptible
susceptibility to baloxavir [3]: susceptible
susceptibility to baloxavir [4]: retained susceptibility; also recorded: susceptible

CCC(CC)[C@H](NC(C)=O)[C@@H]1[C@H](O)[C@@H](C(=O)O)C[C@H]1N=C(N)N [Peramivir, peramivir]
NA inhibitors IC50 fold change [5]: 0.08 ± 0.01 (1) fold
IC50 [5, 7]: 0.08 nM
NA inhibitors IC50 fold change [6]: 0.19 ± 0.01 (3) fold
IC50 [6, 7]: 0.19 nM
NA inhibitors IC50 fold change [1]: 0.29 ± 0.01 (4) fold
IC50 [1, 7]: 0.29 nM

Source: article PMC11210663 (Emerging Infectious Diseases, 2024)
